# Assay results as given in the supplement of paper PMC10307832.
# Columns and labels:
# Assay in all cases: relative viability (nuclei count vs DMSO), 5 days (fraction); higher = more cells survive
# [1] = tested on: NCI-H650
# Outline: (§1)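 For relative viability, nuclei counts in treated wells were divided by those in vehicle wells. Lung cancer cell lines had been pin-tool dosed in 1536-well plates the day after seeding and cultured for 5 days, then fixed and stained in one step (final 0.05% Triton X-100, 1% formaldehyde, 1 ug/ml Hoechst) and imaged at 4×. Doses were one drug alone or a fixed anchor-drug dose plus five library-drug doses (not always all listed) in √10 steps, and values are duplicate-plate medians.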
# [2] = tested on: NCI-H2009
# Outline: as §1
# [3] = tested on: A-427
# Outline: as §1
# [4] = tested on: UMC-11
# Outline: as §1
# [5] = tested on: H3255
# Outline: as §1
# [6] = tested on: HARA
# Outline: as §1
# [7] = tested on: NCI-H1915
# Outline: as §1
# [8] = tested on: HCC-366
# Outline: as §1
# [9] = tested on: NCI-H596
# Outline: as §1
# [10] = tested on: PC-3 [JPC-3]
# Outline: as §1
# [11] = tested on: SK-LU-1
# Outline: as §1
# [12] = tested on: NCI-H2405
# Outline: as §1
# [13] = tested on: NCI-H460
# Outline: as §1
# [14] = tested on: NCI-H441
# Outline: as §1
# [15] = tested on: NCI-H1623
# Outline: as §1
# [16] = tested on: PC-14
# Outline: as §1
# [17] = tested on: NCI-H2023
# Outline: as §1
# [18] = tested on: NCI-H1437
# Outline: as §1
# [19] = tested on: NCI-H1755
# Outline: as §1
# [20] = tested on: NCI-H1793
# Outline: as §1
# [21] = tested on: HCC-15
# Outline: as §1
# [22] = tested on: NCI-H1975
# Outline: as §1
# [23] = tested on: NCI-H3122
# Outline: as §1
# [24] = tested on: LXF-289
# Outline: as §1
# [25] = tested on: IA-LM
# Outline: as §1
smiles,measurement,setting,value
CCCCCCCCCCCC1=C(O)C(=O)C=C(O)C1=O [Embelin] + COc1cc2c(Oc3ccc(NC(=O)C4(C(=O)Nc5ccc(F)cc5)CC4)cc3F)ccnc2cc1OCCCN1CCOCC1 [Foretinib] (partner 0.25 µM),relative viability,[1]; first compound 0.08 µM,0.998
same,relative viability,[1]; first compound 0.8 µM,1.21
same,relative viability,[1]; first compound 2.53 µM,1.08
same,relative viability,[1]; first compound 8 µM,1.02
same,relative viability,[2]; first compound 0.08 µM,1.24
same,relative viability,[2]; first compound 0.8 µM,1.33
same,relative viability,[2]; first compound 2.53 µM,1.24
same,relative viability,[2]; first compound 8 µM,1.17
same,relative viability,[3]; first compound 0.08 µM,1.15
same,relative viability,[3]; first compound 0.8 µM,1.14
same,relative viability,[3]; first compound 2.53 µM,1.12
same,relative viability,[3]; first compound 8 µM,1.2
same,relative viability,[4]; first compound 0.08 µM,1.06
same,relative viability,[4]; first compound 0.8 µM,1.14
same,relative viability,[4]; first compound 2.53 µM,1.21
same,relative viability,[4]; first compound 8 µM,1.28
same,relative viability,[5]; first compound 0.08 µM,0.831
same,relative viability,[5]; first compound 0.8 µM,1.01
same,relative viability,[5]; first compound 2.53 µM,0.82
same,relative viability,[5]; first compound 8 µM,0.956
same,relative viability,[6]; first compound 0.08 µM,0.827
same,relative viability,[6]; first compound 0.8 µM,0.968
same,relative viability,[6]; first compound 2.53 µM,1.18
same,relative viability,[6]; first compound 8 µM,0.942
same,relative viability,[7]; first compound 0.08 µM,1.14
same,relative viability,[7]; first compound 0.8 µM,1.1
same,relative viability,[7]; first compound 2.53 µM,1.13
same,relative viability,[7]; first compound 8 µM,1.13
same,relative viability,[8]; first compound 0.08 µM,0.906
same,relative viability,[8]; first compound 0.8 µM,1.03
same,relative viability,[8]; first compound 2.53 µM,0.94
same,relative viability,[8]; first compound 8 µM,0.99
same,relative viability,[9]; first compound 0.08 µM,0.834
same,relative viability,[9]; first compound 0.8 µM,0.835
same,relative viability,[9]; first compound 2.53 µM,1.02
same,relative viability,[9]; first compound 8 µM,0.764
same,relative viability,[10]; first compound 0.08 µM,1.01
same,relative viability,[10]; first compound 0.8 µM,1.02
same,relative viability,[10]; first compound 2.53 µM,0.985
same,relative viability,[10]; first compound 8 µM,1.08
same,relative viability,[11]; first compound 0.08 µM,0.953
same,relative viability,[11]; first compound 0.8 µM,0.861
same,relative viability,[11]; first compound 2.53 µM,1.04
same,relative viability,[11]; first compound 8 µM,0.888
same,relative viability,[12]; first compound 0.08 µM,1.15
same,relative viability,[12]; first compound 0.8 µM,1.14
same,relative viability,[12]; first compound 2.53 µM,1.11
same,relative viability,[12]; first compound 8 µM,1.06
same,relative viability,[13]; first compound 0.08 µM,0.996
same,relative viability,[13]; first compound 0.8 µM,1.03
same,relative viability,[13]; first compound 2.53 µM,1.11
same,relative viability,[13]; first compound 8 µM,1.08
same,relative viability,[14]; first compound 0.08 µM,1.05
same,relative viability,[14]; first compound 0.8 µM,1.09
same,relative viability,[14]; first compound 2.53 µM,1.22
same,relative viability,[14]; first compound 8 µM,1.09
same,relative viability,[15]; first compound 0.08 µM,0.889
same,relative viability,[15]; first compound 0.8 µM,0.872
same,relative viability,[15]; first compound 2.53 µM,0.876
same,relative viability,[15]; first compound 8 µM,0.853
same,relative viability,[16]; first compound 0.08 µM,1.05
same,relative viability,[16]; first compound 0.8 µM,0.992
same,relative viability,[16]; first compound 2.53 µM,1.06
same,relative viability,[16]; first compound 8 µM,1.08
same,relative viability,[17]; first compound 0.08 µM,0.819
same,relative viability,[17]; first compound 0.8 µM,0.891
same,relative viability,[17]; first compound 2.53 µM,0.887
same,relative viability,[17]; first compound 8 µM,0.75
same,relative viability,[18]; first compound 0.08 µM,1.25
same,relative viability,[18]; first compound 0.8 µM,1.24
same,relative viability,[18]; first compound 2.53 µM,1.27
same,relative viability,[18]; first compound 8 µM,1.06
same,relative viability,[19]; first compound 0.08 µM,0.912
same,relative viability,[19]; first compound 0.8 µM,0.948
same,relative viability,[19]; first compound 2.53 µM,0.927
same,relative viability,[19]; first compound 8 µM,0.906
same,relative viability,[20]; first compound 0.08 µM,0.712
same,relative viability,[20]; first compound 0.8 µM,0.76
same,relative viability,[20]; first compound 2.53 µM,0.916
same,relative viability,[20]; first compound 8 µM,0.765
same,relative viability,[21]; first compound 0.08 µM,1.01
same,relative viability,[21]; first compound 0.8 µM,1.08
same,relative viability,[21]; first compound 2.53 µM,1.14
same,relative viability,[21]; first compound 8 µM,1.08
same,relative viability,[22]; first compound 0.08 µM,1.06
same,relative viability,[22]; first compound 0.8 µM,0.97
same,relative viability,[22]; first compound 2.53 µM,1.01
same,relative viability,[22]; first compound 8 µM,1.07
same,relative viability,[23]; first compound 0.08 µM,0.98
same,relative viability,[23]; first compound 0.8 µM,1.01
same,relative viability,[23]; first compound 2.53 µM,0.951
same,relative viability,[23]; first compound 8 µM,1.03
same,relative viability,[24]; first compound 0.08 µM,0.999
same,relative viability,[24]; first compound 0.8 µM,1
same,relative viability,[24]; first compound 2.53 µM,1.06
same,relative viability,[24]; first compound 8 µM,0.998
same,relative viability,[25]; first compound 0.08 µM,1.05
same,relative viability,[25]; first compound 0.8 µM,1.17
same,relative viability,[25]; first compound 2.53 µM,1.16
same,relative viability,[25]; first compound 8 µM,1.16
